# Patent US20220087983A1, “ACTIVATING PYRUVATE KINASE R” (FORMA Therapeutics, Inc., priority 2020, published 2022)
# Legend:
# [1] = Phase 1: plasma pharmacokinetics in SCD patients; format: in vivo; settings: human, oral, SCD (N = 5), single dose 700 mg
# Source text: This is a first-in-human (FIH), Phase 1 study of Compound 1 that will characterize the safety, PK, and PD of Compound 1 after a single dose and after repeated dosing first in healthy adult volunteers and then in adolescents or adults with sickle cell disease. Initially, a dose range of Compound 1 in single ascending dose (SAD) escalation cohorts will be explored in healthy subjects. Enrollment of healthy subjects into 2-week multiple ascending dose (MAD) escalation cohorts will be initiated once the safety and PK from at least two SAD cohorts is available to inform the doses for the 2-week MAD portion of the study. The MAD cohorts will then run in parallel to the single dose cohorts. A single dose cohort is planned to understand food effects (FE) on the PK of Compound 1. […] Multiple dose studies in SCD subjects will then be initiated upon completion of MAD studies in healthy volunteers. Compound 1 will be administered in 25 mg and 100 mg tablets delivered orally, prepared as described in Example 1, Step 7.
# In this study, SAD/MAD cohorts are randomized (3 to 1) to receive Compound 1 or placebo (P). Compound 1 was evaluated first in 4 healthy SAD cohorts and 4 healthy MAD (14-day dosing period) cohorts. Based on the safety, and PK/PD profile from HS, Compound 1 is then evaluated in 1 SCD SAD cohort and 2 SCD MAD cohorts. Specifically, based on the safety and pharmacokinetic/pharmacodynamics (PK/PD) profile in healthy volunteer studies, Compound 1 is evaluated in patients (pts) with SCD, first in a single dose (SD or SAD) cohort and then in multiple-dose (MD or MAD) cohorts (14-day and 12-week). Safety assessments include AEs, vital signs, ECGs and laboratory parameters. PK/PD blood sampling was performed on Day 1 (SAD/MAD) and Day 14 (MAD) and up to 72 h after the last dose and at the end-of-study visit. PD parameters included 2,3-DPG, ATP, and p50 in all cohorts with additional PD studies (including oxygen scan) performed only in the SCD cohorts. PD parameters included 2,3-DPG, ATP, p50, RBC deformability with controlled deoxygenation and reoxygenation (Lorrca® oxygen scan) and varying osmolality (Lorrca® osmoscan)). To maintain study blind, pt identifiers were removed when needed.
# A potential exposure to the maximum PD response dose range to evaluate in patients with SCD was identified. Based on the safety and PK/PD profile in healthy volunteer studies, a 700 mg single dose was evaluated in patients with SCD (n=7). A single 700 mg dose of Compound 1 was selected to evaluate in patients with SCD to enable daily dosing cohorts at lower exposures.
# In the SCD single dose cohort, seven patients received either Compound 1 (n=5) or placebo (n=2).
# CYP2D6 = target: T1, CYP2D6 (Homo sapiens, UniProt P10635); test: Single substrate DDI assay, reversible CYP inhibition in human liver microsomes; format: in vitro ADME
# T1 construct: from tissue; host or cells: human liver microsomes
# T1 sequence (P10635 whole entry): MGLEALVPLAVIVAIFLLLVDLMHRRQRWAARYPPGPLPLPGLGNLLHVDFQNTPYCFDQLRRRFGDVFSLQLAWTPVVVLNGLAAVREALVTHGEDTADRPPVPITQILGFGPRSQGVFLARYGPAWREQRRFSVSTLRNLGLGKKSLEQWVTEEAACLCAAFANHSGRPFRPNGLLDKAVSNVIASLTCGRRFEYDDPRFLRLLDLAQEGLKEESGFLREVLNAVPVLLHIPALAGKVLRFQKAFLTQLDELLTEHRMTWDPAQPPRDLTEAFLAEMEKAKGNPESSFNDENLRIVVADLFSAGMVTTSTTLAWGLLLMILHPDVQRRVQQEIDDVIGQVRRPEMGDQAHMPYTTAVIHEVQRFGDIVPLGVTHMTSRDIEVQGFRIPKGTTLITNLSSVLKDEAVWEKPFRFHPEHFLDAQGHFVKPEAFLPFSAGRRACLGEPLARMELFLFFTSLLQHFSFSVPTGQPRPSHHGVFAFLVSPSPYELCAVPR
# [2] = Phase 1: safety, adverse events in SCD patients; format: in vivo, human
# Experimental: All SCD patients who received a single 700 mg dose of Compound 1 or placebo were monitored for adverse events for 7 days. The incidence of treatment emergent adverse events (TEAEs) in SCD patients receiving Compound 1 (700 mg) or placebo are reported in Table 23. Six TEAEs were reported in 4 patients; all TEAEs were grade 1 and transient. Specifically, six TEAEs were reported in 4 of 7 (57%) patients, including 3 TEAEs (arthralgia, headache, palpitations) in 2 of 5 (40%) pts receiving Compound 1 and 3 TEAEs (back pain, myalgia, pruritis) in 2 of 2 (100%) pts receiving placebo; all TEAEs were grade 1 and transient. […] One possibly related TEAE (palpitations) occurred about 8 hours post dose. No other symptoms were observed, and the palpitations resolved in <1 minute. […] The single 700 mg dose of Compound 1 was considered tolerable, and the first multiple dose SCD cohort was initiated.
# Based on data from the MAD1 (300 mg once daily for 14 days), Compound 1 is well-tolerated in patients with SCD. In all, eighteen TEAEs were reported in 7 of 9 patients in the MAD1 (300 mg once daily) cohort (N=9). These included (a) eight Grade 1 TEAEs, including 3 patients c/o headache, 1 each of nausea, constipation, somnolence, increased LDH and increased AST, of which two AEs considered to be possibly related to study treatment were reported by one patient each (1 AE of headache and 1 AE of nausea); (b) six Grade 2 TEAEs, including 3 uncomplicated sickle pain events (in 2 patients), 1 patient with N/V and 1 increased reticulocytes, of which no AEs were considered related to study treatment, all AEs of pain events were considered unrelated and consistent with each patient's SCD pain history, and all AEs were treated with patient's standard home pain medications (no SAE/no hospitalization); and (c) one Grade 4 TEAE of elevated creatine kinase, unrelated to study treatment. Non-treatment-related AEs were consistent with events experienced in this patient population. No treatment-related serious AEs were reported.
# CYP1A2 = target: T2, CYP1A2 (Homo sapiens, UniProt P05177); test: Single substrate DDI assay, reversible CYP inhibition in human liver microsomes; format: in vitro ADME
# T2 construct: from tissue; host or cells: human liver microsomes
# T2 sequence (P05177 1-516): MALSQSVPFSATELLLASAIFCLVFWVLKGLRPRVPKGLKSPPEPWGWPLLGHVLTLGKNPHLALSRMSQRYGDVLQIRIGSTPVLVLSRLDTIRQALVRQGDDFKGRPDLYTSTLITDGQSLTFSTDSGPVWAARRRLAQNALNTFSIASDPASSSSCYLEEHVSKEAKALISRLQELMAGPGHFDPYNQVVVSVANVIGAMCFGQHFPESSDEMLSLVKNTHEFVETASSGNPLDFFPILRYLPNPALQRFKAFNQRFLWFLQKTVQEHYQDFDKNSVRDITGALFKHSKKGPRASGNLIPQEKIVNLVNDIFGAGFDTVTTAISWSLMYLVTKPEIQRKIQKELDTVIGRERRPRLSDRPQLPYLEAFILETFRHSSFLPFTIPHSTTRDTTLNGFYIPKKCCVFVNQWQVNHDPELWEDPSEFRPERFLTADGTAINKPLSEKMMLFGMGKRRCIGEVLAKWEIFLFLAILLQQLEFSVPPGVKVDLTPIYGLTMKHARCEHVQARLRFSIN
# [3] = Preclinical safety: arrhythmia risk, mutagenicity, panels of receptors, enzymes, ion channels and kinases in vitro
# [4] = SCD MAD1, 300 mg × 14 days, n = 7
smiles,measurement,setting,value
"O=C([C@H](CO)c1ccccc1)N1CC2=C(C1)CN(S(=O)(=O)c1cnc3c(c1)OCCO3)C2 (single isomer, unassigned) [Compound 1]",AUC(0-inf),[1]; geometric mean (geometric CV),7300 ng·h/mL
same,Cmax,[1]; geometric mean (geometric CV),2580 ng/mL
same,half-life,[1]; geometric mean (geometric CV),14.9 h
same,Tmax,"[1]; median [min, max]",2 h
same,IC50,CYP2D6,> 30 µM
same,"Any serious adverse event (SAE), n (%)",[2]; [4],0 n (%)
same,"TEAE related to study drug, n (%)",[2]; [4],2 (29%) n (%)
same,serious adverse events or TEAEs leading to withdrawal,[2]; SCD single dose cohort,No serious adverse events (SAEs) or TEAEs leading to pt withdrawal
same,"Any TEAE, n (%)","[2]; SCD, single dose 700 mg, N = 5",2 (40) n (%)
same,"TEAE related to study drug, n (%)","[2]; SCD, single dose 700 mg, N = 5",1 (20) n (%)
same,IC50,CYP1A2,> 30 µM
same,"preclinical evidence of arrhythmia risk, mutagenicity, or nonspecific binding activity",[3],"has not demonstrated any preclinical evidence of arrhythmia risk, mutagenicity, or nonspecific binding activity"
